Assay results as given in PubChem BioAssay (NCI).
Several values for one entry are separate records, joined by “and”; a condition that tells them apart may be missing. Equal values may be shown once.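 The compound was tested at five concentrations on cells cultured in 96-well plates, with a 48-hour exposure period. GI50 = concentration required for 50% inhibition of growth. TGI denotes the concentration required for complete inhibition of growth.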

Legend:
Experiment in all cases: growth of human tumour cells (NCI), 48 h
NCI/ADR-RES ovarian = test system: NCI/ADR-RES ovarian
UACC-62 melanoma = test system: UACC-62 melanoma
SK-MEL-2 melanoma = test system: SK-MEL-2 melanoma
RXF 393 renal = test system: RXF 393 renal
HCT-116 colon = test system: HCT-116 colon
KM12 colon = test system: KM12 colon
SK-OV-3 ovarian = test system: SK-OV-3 ovarian
SNB-75 CNS = test system: SNB-75 CNS
A549 NSCLC = test system: A549 NSCLC
OVCAR-4 ovarian = test system: OVCAR-4 ovarian

SMILES | TGI (NCI/ADR-RES ovarian) | TGI (UACC-62 melanoma) | TGI (SK-MEL-2 melanoma) | TGI (RXF 393 renal) | TGI (HCT-116 colon) | TGI (KM12 colon) | TGI (SK-OV-3 ovarian) | TGI (SNB-75 CNS) | TGI (A549 NSCLC) | TGI (OVCAR-4 ovarian) | GI50 (NCI/ADR-RES ovarian) | GI50 (UACC-62 melanoma) | GI50 (SK-MEL-2 melanoma) | GI50 (RXF 393 renal) | GI50 (HCT-116 colon) | GI50 (KM12 colon) | GI50 (SNB-75 CNS) | GI50 (A549 NSCLC) | GI50 (SK-OV-3 ovarian) | GI50 (OVCAR-4 ovarian)
C=C1C(=O)OC2/C=C(/C)C(OC(C)=O)C/C=C(\C)C(OC(=O)C3(C)OC3C)C(O)C12 (stereo not drawn) | > 100 µM | > 100 µM | > 100 µM | > 100 µM | > 100 µM | > 100 µM | > 100 µM | > 100 µM | > 100 µM | > 100 µM | – | – | – | – | – | – | – | – | – | –
CCCCCCCCCCCCCC[C@@H](O)[C@H]1CC[C@H]([C@H]2CC[C@H]([C@H](O)CCCCCC[C@@H](O)CC3=C[C@H](C)OC3=O)O2)O1 | 2.95 µM and > 25 µM | 4.5 µM and > 25 µM | 3.86 µM and > 25 µM | > 25 µM | > 25 µM | 4.1 µM and > 25 µM | > 25 µM | 4.95 µM and > 25 µM | > 25 µM | > 25 µM | 676 nM | > 25 µM | 1520 nM | 2720 nM | 2200 nM | 1550 nM | 1700 nM | 1590 nM | – | –
CN1C(=O)C2(c3ccccc31)N(c1ccc(Cl)cc1)C(=O)C2(c1ccccc1)c1ccccc1 (stereo not drawn) | > 100 µM | > 100 µM | > 100 µM | > 100 µM | > 100 µM | > 100 µM | > 100 µM | 90.5 µM | > 100 µM | > 100 µM | 34700 nM | 39.7 µM | 35600 nM | 64600 nM | 9570 nM | > 100000 nM | 17800 nM | 18500 nM | > 100 µM | 5100 nM
COC(=O)[C@H]1CCCN1C(=O)[C@H]1CCCN1C(=O)[C@H](Cc1c[nH]c2ccccc12)NC(=S)Nc1cc(C(F)(F)F)cc(C(F)(F)F)c1 | > 100 µM | > 100 µM | 27.8 µM | 4.71 µM | > 100 µM | > 100 µM | > 100 µM | > 100 µM | > 100 µM | > 100 µM | > 100000 nM | 6.14 µM | 5340 nM | 1840 nM | 4270 nM | 4470 nM | 1450 nM | 4080 nM | 92.7 µM | 6490 nM
O=C(CN1C(=O)S/C(=C\C(Cl)=C\c2ccccc2)C1=O)NC1C=CS(=O)(=O)C1 (stereo not drawn) | > 100 µM | 3.16 µM | 5.22 µM | 2.18 µM | 1.83 µM | 4.11 µM | 32.6 µM | 12.6 µM | > 100 µM | 17.4 µM | 1990 nM | 1.13 µM | 2110 nM | 849 nM | 377 nM | 1780 nM | 387 nM | 3000 nM | 3.3 µM | 2270 nM
Cc1cc(Cl)nc(N(CCCNc2ccnc3cc(Cl)ccc23)Cc2ccco2)n1 | 6.87 µM | 6.8 µM | 9.19 µM | 4.55 µM | 4.17 µM | 11.5 µM | 8.22 µM | 11.2 µM | 13.9 µM | 12.2 µM | 1760 nM | 2.32 µM | 2820 nM | 1410 nM | 1420 nM | 2790 nM | 2130 nM | 3280 nM | 2.45 µM | 2310 nM
COc1ccc(N(C)c2nc(N)nc3sc4c(c23)CCCC4)cc1 | 14.4 µM | 15.8 µM | 17.2 µM | 20.7 µM | 11.3 µM | 12 µM | 14.2 µM | 13.2 µM | 17.3 µM | 15.3 µM | < 10 nM | < 0.01 µM | 44.1 nM | < 10 nM | < 10 nM | < 10 nM | < 10 nM | < 14.9 nM | < 0.013 µM | < 10 nM
COc1cc2cc(Oc3ccc(NC(=O)Nc4ccc(Cl)c(Cl)c4)cc3)c(C)nc2cc1OC | 16.9 µM | 19.2 µM | 6.54 µM | 16.7 µM | 10.5 µM | 13.4 µM | 26.4 µM | 8.28 µM | 7.61 µM | 8.3 µM | 2600 nM | 3.33 µM | 3000 nM | 4280 nM | 2260 nM | 3220 nM | 2330 nM | 1640 nM | 7.56 µM | 2670 nM
